pIC50: −log10 of the molar value.
Experiments:
Type in all cases: cell-based
[1] = system: SH-SY5Y (human neuroblastoma) cells; assay: Cell viability, Cell Titer Glo 2.0 assay; details: read-out: Viability SHSY5Y.3 GI50
In short: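 SH-SY5Y cells were exposed to serially diluted compounds in IMDM with 10% FBS and 0.1% DMSO for 72 hours at 37° C., 5% CO2. Viability was measured by CellTiter-Glo 2.0 luminescence, with medium-only wells as blank.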

[2] = system: HTT mRNA; assay: Splicing RT-qPCR assay (THP), Table 2A; details: Table 2A, THP; for AC50: HTT alternative junction (AJ) mRNA, read-out: HTT AJ (AC50, increase in alternative junction mRNA); for pIC50: HTT canonical junction (CJ) mRNA, read-out: HTT CJ (IC50, decrease in canonical junction mRNA)
[3] = system: HTT mRNA; assay: Gene panel canonical junction qPCR assay, decrease in CJ mRNA, Table 3; details: decrease in CJ mRNA levels, canonical junction qPCR, gene panel
In short: (§1)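 Canonical exon-junction (CJ) transcript measured by 5′ nuclease RT-qPCR, normalized to GAPDH, GUSB or PPIA and to DMSO control (2^(−ΔΔCt)). A673 or K562 cells treated 24 h at 37° C with an 11-point 3-fold dilution series, top 10 uM, DMSO ≤0.25%. IC50 from 4-parameter logistic fit of percentage CJ decrease.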

[4] = system: MYB mRNA; assay: as above; details: decrease in CJ mRNA levels, canonical junction qPCR, gene panel
In short: as §1

[5] = system: MYB mRNA; assay: Splicing RT-qPCR assay (THP), Table 2A; details: Table 2A, THP; for AC50: MYB alternative junction (AJ) mRNA, read-out: MYB AJ (AC50, increase in alternative junction mRNA); for pIC50: MYB canonical junction (CJ) mRNA, read-out: MYB CJ (IC50, decrease in canonical junction mRNA)

SMILES | GI50 [1] [nM] | AC50 [2] [nM] | pIC50 [2] | pIC50 [3] | pIC50 [4] | AC50 [5] [nM] | pIC50 [5]
Cc1cn2cc(NC(=O)c3ccc(N4CCC(NC5CC5)CC4)c4cn(C)nc34)nc2c(CNC(=N)N)n1 [Compound 754, 4-(4-(cyclopropylamino)piperidin-1-yl)-N-(8-(guanidinomethyl)-6-methylimidazo[1,2-a]pyrazin-2-yl)-2-methyl-2H-indazole-7-carboxamide bis(2,2,2-trifluoroacetate)] | > 10000 | > 10000 | < 5.00 | < 5.00 | < 5.00 | > 10000 | < 5.00
Cc1nc2c(F)cc(NC(=O)c3ccc(N4CCC(NC5CC5)CC4)c4cn(C)nc34)cn2n1 [Compound 755, 4-[4-(cyclopropylamino)-1-piperidyl]-N-(8-fluoro-2-methyl-[1,2,4]triazolo[1,5-a]pyridin-6-yl)-2-methyl-indazole-7-carboxamide] | 100 to 1000 | 1000 to 10000 | 5.00 to 6.00 | 5.00 to 6.00 | 6.00 to 7.00 | < 100 | 6.00 to 7.00
COc1nc2c(C(=O)Nc3cc(F)c4nn(C)nc4c3)ccc(N3C[C@H](C)N[C@@H](C)C3)c2s1 [Compound 756, 7-[(3S,5S)-3,5-dimethylpiperazin-1-yl]-N-(7-fluoro-2-methyl-benzotriazol-5-yl)-2-methoxy-1,3-benzothiazole-4-carboxamide] | < 100 | 100 to 1000 | 6.00 to 7.00 | 6.00 to 7.00 | > 7.00 | < 100 | > 7.00
COc1nc2c(C(=O)Nc3cc(C#N)c4nn(C)cc4c3)ccc(N3C[C@H](C)N[C@@H](C)C3)c2s1 [Compound 757, N-(7-cyano-2-methyl-indazol-5-yl)-7-[(3S,5S)-3,5-dimethylpiperazin-1-yl]-2-methoxy-1,3-benzothiazole-4-carboxamide] | 100 to 1000 | 1000 to 10000 | < 5.00 | < 5.00 | > 7.00 | < 100 | > 7.00
COc1nc2c(C(=O)Nc3cc(C#N)c4nc(C)cn4c3)ccc(N3C[C@H](C)N[C@@H](C)C3)c2s1 [Compound 758, N-(8-cyano-2-methyl-imidazo[1,2-a]pyridin-6-yl)-7-[(3S,5S)-3,5-dimethylpiperazin-1-yl]-2-methoxy-1,3-benzothiazole-4-carboxamide] | 100 to 1000 | > 10000 | < 5.00 | < 5.00 | > 7.00 | < 100 | > 7.00
COc1nc2c(C(=O)Nc3cn4cc(C)nc4c(OC)n3)ccc(N3C[C@H](C)N[C@@H](C)C3)c2s1 [Compound 759, 7-((3S,5S)-3,5-dimethylpiperazin-1-yl)-2-methoxy-N-(8-methoxy-2-methylimidazo[1,2-a]pyrazin-6-yl)benzo[d]thiazole-4-carboxamide 2,2,2-trifluoroacetate] | 100 to 1000 | 1000 to 10000 | 5.00 to 6.00 | 5.00 to 6.00 | > 7.00 | < 100 | > 7.00
COc1nc2c(C(=O)Nc3ccc4c(c3)CCCO4)ccc(N3C[C@H](C)N[C@@H](C)C3)c2s1 [Compound 760] | 1000 to 10000 | > 10000 | < 5.00 | < 5.00 | < 5.00 | > 10000 | < 5.00
COc1nc2c(C(=O)Nc3cc4cn(C)nc4c(F)c3O)ccc(N3C[C@H](C)N[C@@H](C)C3)c2s1 [Compound 761, 7-[(3S,5S)-3,5-dimethylpiperazin-1-yl]-N-(7-fluoro-6-hydroxy-2-methyl-indazol-5-yl)-2-methoxy-1,3-benzothiazole-4-carboxamide] | 1000 to 10000 | > 10000 | < 5.00 | < 5.00 | 6.00 to 7.00 | 100 to 1000 | 6.00 to 7.00
COc1nc2c(C(=O)Nc3cc(CNC(C)=O)c4nn(C)cc4c3)ccc(N3C[C@H](C)N[C@@H](C)C3)c2s1 [Compound 762, N-[7-(acetamidomethyl)-2-methyl-indazol-5-yl]-7-[(3S,5S)-3,5-dimethylpiperazin-1-yl]-2-methoxy-1,3-benzothiazole-4-carboxamide] | 1000 to 10000 | > 10000 | < 5.00 | < 5.00 | > 7.00 | < 100 | > 7.00
COc1nc2c(C(=O)Nc3cc(F)c4nc(C)nn4c3)ccc(N3C[C@H](C)N[C@@H](C)C3)c2s1 [Compound 763, 7-[(3S,5S)-3,5-dimethylpiperazin-1-yl]-N-(8-fluoro-2-methyl-[1,2,4]triazolo[1,5-a]pyridin-6-yl)-2-methoxy-1,3-benzothiazole-4-carboxamide] | < 100 | 100 to 1000 | 5.00 to 6.00 | 5.00 to 6.00 | > 7.00 | < 100 | > 7.00
COc1nc2c(C(=O)Nc3cn4cc(C)nc4c(F)c3OC)ccc(N3C[C@H](C)N[C@@H](C)C3)c2s1 [Compound 764, 7-((3S,5S)-3,5-dimethylpiperazin-1-yl)-N-(8-fluoro-7-methoxy-2-methylimidazo[1,2-a]pyridin-6-yl)-2-methoxybenzo[d]thiazole-4-carboxamide 2,2,2-trifluoroacetate] | 100 to 1000 | > 10000 | 5.00 to 6.00 | 5.00 to 6.00 | > 7.00 | < 100 | > 7.00
COc1nc2c(C(=O)Nc3cc(F)c4nn(C)cc4c3)ccc(N3CCN[C@H](C)C3)c2s1 [Compound 765] | 100 to 1000 | 100 to 1000 | 6.00 to 7.00 | 6.00 to 7.00 | > 7.00 | < 100 | > 7.00
COc1nc2c(C(=O)Nc3cc(F)c4nn(C)cc4c3)ccc(N3CCN[C@@H](C)C3)c2s1 [Compound 766] | < 100 | < 100 | > 7.00 | > 7.00 | > 7.00 | < 100 | > 7.00
COc1nc2c(C(=O)Nc3cc(F)c4nn(C)cc4c3)ccc(N3C[C@H](C)N(C)[C@@H](C)C3)c2s1 [Compound 767, N-(7-fluoro-2-methyl-indazol-5-yl)-2-methoxy-7-[(3S,5S)-3,4,5-trimethylpiperazin-1-yl]-1,3-benzothiazole-4-carboxamide] | 100 to 1000 | 1000 to 10000 | 5.00 to 6.00 | 5.00 to 6.00 | > 7.00 | < 100 | > 7.00
COc1nc2c(C(=O)Nc3cc(F)c4nn(C)cc4c3)ccc(N3CCC4(CCCN4)CC3)c2s1 [Compound 768] | 100 to 1000 | < 100 | > 7.00 | > 7.00 | > 7.00 | < 100 | > 7.00
COc1nc2c(C(=O)Nc3cc(F)c4nn(C)cc4c3)ccc(N3CC[C@@H](NC(C)(C)C)C3)c2s1 [Compound 769] | 100 to 1000 | 100 to 1000 | 6.00 to 7.00 | 6.00 to 7.00 | > 7.00 | < 100 | > 7.00
COc1nc2c(C(=O)Nc3cc(F)c4nn(C)cc4c3)ccc(N3CC[C@H](NC(C)(C)C)C3)c2s1 [Compound 770] | 100 to 1000 | 100 to 1000 | 6.00 to 7.00 | 6.00 to 7.00 | 6.00 to 7.00 | 100 to 1000 | 6.00 to 7.00
COc1nc2c(C(=O)Nc3cc(F)c4nn(C)cc4c3)ccc(N3CCNC(C)C3C)c2s1 (centres unmarked) [Compound 771, 7-(2,3-dimethylpiperazin-1-yl)-N-(7-fluoro-2-methyl-indazol-5-yl)-2-methoxy-1,3-benzothiazole-4-carboxamide] | 100 to 1000 | > 10000 | 5.00 to 6.00 | 5.00 to 6.00 | 6.00 to 7.00 | 100 to 1000 | 6.00 to 7.00
COc1nc2c(C(=O)Nc3cc(F)c4nn(C)cc4c3)ccc(N3CC(C)NCC3C)c2s1 (centres unmarked) [Compound 772, 7-(2,5-dimethylpiperazin-1-yl)-N-(7-fluoro-2-methyl-indazol-5-yl)-2-methoxy-1,3-benzothiazole-4-carboxamide] | 1000 to 10000 | > 10000 | < 5.00 | < 5.00 | 5.00 to 6.00 | 100 to 1000 | 5.00 to 6.00
Cc1cn2cc(NC(=O)c3ccc(N4CCC(NC5CC5)CC4)c4cn(C)nc34)nc2c(Cn2cccn2)n1 [Compound 773, 4-[4-(cyclopropylamino)-1-piperidyl]-2-methyl-N-[6-methyl-8-(pyrazol-1-ylmethyl)imidazo[1,2-a]pyrazin-2-yl]indazole-7-carboxamide] | 1000 to 10000 | 1000 to 10000 | 5.00 to 6.00 | 5.00 to 6.00 | 5.00 to 6.00 | 1000 to 10000 | 5.00 to 6.00

Source: patent US20260285853A1, “COMPOUNDS AND METHODS FOR MODULATING SPLICING” (REMIX THERAPEUTICS INC., priority 2023, published 2026)
